Article PMC11968843, “Sulphostin-inspired N-phosphonopiperidones as selective covalent DPP8 and DPP9 inhibitors” (Nature Communications, 2025)

Assays:
Assay in all cases: Competitive ABPP / direct target identification with alkyne probe 9 in HEK293 cell lysates
Format in all cases: binding, H. sapiens
[1] = target: T1, HEK293 cell lysates (proteome-wide targets of probe 9) (Homo sapiens, UniProt O00295); conditions: protein TULP2
T1 construct: endogenous in cells; host or cells: HEK293 cell lysate

[2] = target: T2, HEK293 cell lysates (proteome-wide targets of probe 9) (Homo sapiens, UniProt P00338); conditions: protein LDHA
T2 construct: endogenous in cells; host or cells: HEK293 cell lysate

[3] = target: T3, HEK293 cell lysates (proteome-wide targets of probe 9) (Homo sapiens, UniProt P04406); conditions: protein GAPDH
T3 construct: endogenous in cells; host or cells: HEK293 cell lysate

[4] = target: T4, HEK293 cell lysates (proteome-wide targets of probe 9) (Homo sapiens, UniProt P06733); conditions: protein ENO1
T4 construct: endogenous in cells; host or cells: HEK293 cell lysate

[5] = target: T5, HEK293 cell lysates (proteome-wide targets of probe 9) (Homo sapiens, UniProt P07437); conditions: protein TUBB
T5 construct: endogenous in cells; host or cells: HEK293 cell lysate

[6] = target: T6, HEK293 cell lysates (proteome-wide targets of probe 9) (Homo sapiens, UniProt P07900); conditions: protein HSP90AA1
T6 construct: endogenous in cells; host or cells: HEK293 cell lysate

[7] = target: T7, HEK293 cell lysates (proteome-wide targets of probe 9) (Homo sapiens, UniProt P08670); conditions: protein VIM
T7 construct: endogenous in cells; host or cells: HEK293 cell lysate

[8] = target: T8, HEK293 cell lysates (proteome-wide targets of probe 9) (Homo sapiens, UniProt P08865); conditions: protein RPSA
T8 construct: endogenous in cells; host or cells: HEK293 cell lysate

[9] = target: T9, HEK293 cell lysates (proteome-wide targets of probe 9) (Homo sapiens, UniProt P11021); conditions: protein HSPA5
T9 construct: endogenous in cells; host or cells: HEK293 cell lysate

[10] = target: T10, HEK293 cell lysates (proteome-wide targets of probe 9) (Homo sapiens, UniProt P23526); conditions: protein AHCY
T10 construct: endogenous in cells; host or cells: HEK293 cell lysate

[11] = target: T11, HEK293 cell lysates (proteome-wide targets of probe 9) (Homo sapiens, UniProt P23528); conditions: protein CFL1
T11 construct: endogenous in cells; host or cells: HEK293 cell lysate

[12] = target: T12, HEK293 cell lysates (proteome-wide targets of probe 9) (Homo sapiens, UniProt P25398); conditions: protein RPS12
T12 construct: endogenous in cells; host or cells: HEK293 cell lysate

[13] = target: T13, HEK293 cell lysates (proteome-wide targets of probe 9) (Homo sapiens, UniProt P26641); conditions: protein EEF1G
T13 construct: endogenous in cells; host or cells: HEK293 cell lysate

[14] = target: T14, HEK293 cell lysates (proteome-wide targets of probe 9) (Homo sapiens, UniProt P29401); conditions: protein TKT
T14 construct: endogenous in cells; host or cells: HEK293 cell lysate

[15] = target: T15, HEK293 cell lysates (proteome-wide targets of probe 9) (Homo sapiens, UniProt P30041); conditions: protein PRDX6
T15 construct: endogenous in cells; host or cells: HEK293 cell lysate

[16] = target: T16, HEK293 cell lysates (proteome-wide targets of probe 9) (Homo sapiens, UniProt P46781); conditions: protein RPS9
T16 construct: endogenous in cells; host or cells: HEK293 cell lysate

[17] = target: T17, HEK293 cell lysates (proteome-wide targets of probe 9) (Homo sapiens, UniProt P55060); conditions: protein CSE1L
T17 construct: endogenous in cells; host or cells: HEK293 cell lysate

[18] = target: T18, HEK293 cell lysates (proteome-wide targets of probe 9) (Homo sapiens, UniProt P60174); conditions: protein TPI1
T18 construct: endogenous in cells; host or cells: HEK293 cell lysate

[19] = target: T19, HEK293 cell lysates (proteome-wide targets of probe 9) (Homo sapiens, UniProt P60842); conditions: protein EIF4A1
T19 construct: endogenous in cells; host or cells: HEK293 cell lysate

[20] = target: T20, HEK293 cell lysates (proteome-wide targets of probe 9) (Homo sapiens, UniProt P62424); conditions: protein RPL7A
T20 construct: endogenous in cells; host or cells: HEK293 cell lysate

[21] = target: T21, HEK293 cell lysates (proteome-wide targets of probe 9) (Homo sapiens, UniProt P63261); conditions: protein ACTG1
T21 construct: endogenous in cells; host or cells: HEK293 cell lysate

[22] = target: T22, HEK293 cell lysates (proteome-wide targets of probe 9) (Homo sapiens, UniProt P83731); conditions: protein RPL24
T22 construct: endogenous in cells; host or cells: HEK293 cell lysate

[23] = target: T23, HEK293 cell lysates (proteome-wide targets of probe 9) (Homo sapiens, UniProt Q06830); conditions: protein PRDX1
T23 construct: endogenous in cells; host or cells: HEK293 cell lysate

[24] = target: T24, HEK293 cell lysates (proteome-wide targets of probe 9) (Homo sapiens, UniProt Q07020); conditions: protein RPL18
T24 construct: endogenous in cells; host or cells: HEK293 cell lysate

[25] = target: T25, HEK293 cell lysates (proteome-wide targets of probe 9) (Homo sapiens, UniProt Q08211); conditions: protein DHX9
T25 construct: endogenous in cells; host or cells: HEK293 cell lysate

[26] = target: T26, HEK293 cell lysates (proteome-wide targets of probe 9) (Homo sapiens, UniProt Q12802); conditions: protein AKAP13
T26 construct: endogenous in cells; host or cells: HEK293 cell lysate

[27] = target: T27, HEK293 cell lysates (proteome-wide targets of probe 9) (Homo sapiens, UniProt Q14103); conditions: protein HNRNPD
T27 construct: endogenous in cells; host or cells: HEK293 cell lysate

[28] = target: T28, HEK293 cell lysates (proteome-wide targets of probe 9) (Homo sapiens, UniProt Q14697); conditions: protein GANAB
T28 construct: endogenous in cells; host or cells: HEK293 cell lysate

[29] = target: T29, HEK293 cell lysates (proteome-wide targets of probe 9) (Homo sapiens, UniProt Q14974); conditions: protein KPNB1
T29 construct: endogenous in cells; host or cells: HEK293 cell lysate

[30] = target: T30, HEK293 cell lysates (proteome-wide targets of probe 9) (Homo sapiens, UniProt Q15366); conditions: protein PCBP2
T30 construct: endogenous in cells; host or cells: HEK293 cell lysate

[31] = target: T31, HEK293 cell lysates (proteome-wide targets of probe 9) (Homo sapiens, UniProt Q8NC51); conditions: protein SERBP1
T31 construct: endogenous in cells; host or cells: HEK293 cell lysate

C#CCCCP(=O)(OCC)N1CCCC(N)C1=O.O=C(O)C(F)(F)F (mixture of isomers) [Compound 9]
Log2-fold change (9/DMSO) [1]: -0.1649 | Log2-fold change (9/DMSO) [2]: -0.2121 | Log2-fold change (9/DMSO) [3]: -0.2878 | Log2-fold change (9/DMSO) [4]: -0.0902 | Log2-fold change (9/DMSO) [5]: 1.741 | Log2-fold change (9/DMSO) [6]: -0.06179 | Log2-fold change (9/DMSO) [7]: 0.9336 | Log2-fold change (9/DMSO) [8]: 1.5735 | Log2-fold change (9/DMSO) [9]: -0.3942 | Log2-fold change (9/DMSO) [10]: -0.3328 | Log2-fold change (9/DMSO) [11]: 0.4225 | Log2-fold change (9/DMSO) [12]: -1.46 | Log2-fold change (9/DMSO) [13]: 0.4327 | Log2-fold change (9/DMSO) [14]: -1.0711 | Log2-fold change (9/DMSO) [15]: 0.7412 | Log2-fold change (9/DMSO) [16]: 0.8119 | Log2-fold change (9/DMSO) [17]: 0.5768 | Log2-fold change (9/DMSO) [18]: 0.2166 | Log2-fold change (9/DMSO) [19]: 0.03837 | Log2-fold change (9/DMSO) [20]: 1.788 | Log2-fold change (9/DMSO) [21]: 0.5764 | Log2-fold change (9/DMSO) [22]: -0.3893 | Log2-fold change (9/DMSO) [23]: 0.4333 | Log2-fold change (9/DMSO) [24]: 1.2987 | Log2-fold change (9/DMSO) [25]: -0.5054 | Log2-fold change (9/DMSO) [26]: -0.9342 | Log2-fold change (9/DMSO) [27]: 1.662 | Log2-fold change (9/DMSO) [28]: 0.2816 | Log2-fold change (9/DMSO) [29]: 1.065 | Log2-fold change (9/DMSO) [30]: 1.083 | Log2-fold change (9/DMSO) [31]: -0.5195

CCCCCc1ccc(SCCP(=O)(OCC)N2CCC[C@H](N)C2=O)cc1.O=C(O)C(F)(F)F (some centres unmarked) [Compound 16]
Log2-fold change (16/9) [1]: 0.6272 | Log2-fold change (16/9) [2]: 0.1049 | Log2-fold change (16/9) [3]: 0.4935 | Log2-fold change (16/9) [4]: 0.05891 | Log2-fold change (16/9) [5]: -2.286 | Log2-fold change (16/9) [6]: -0.09553 | Log2-fold change (16/9) [7]: -0.2472 | Log2-fold change (16/9) [8]: -2.215 | Log2-fold change (16/9) [9]: 0.6165 | Log2-fold change (16/9) [10]: -0.05498 | Log2-fold change (16/9) [11]: -0.1396 | Log2-fold change (16/9) [12]: 0.07588 | Log2-fold change (16/9) [13]: -0.1709 | Log2-fold change (16/9) [14]: 1.379 | Log2-fold change (16/9) [15]: 0.07848 | Log2-fold change (16/9) [16]: 0.2438 | Log2-fold change (16/9) [17]: 0.04384 | Log2-fold change (16/9) [18]: -0.0839 | Log2-fold change (16/9) [19]: -1.788 | Log2-fold change (16/9) [20]: 0.2888 | Log2-fold change (16/9) [21]: -0.3964 | Log2-fold change (16/9) [22]: 1.34 | Log2-fold change (16/9) [23]: 0.107 | Log2-fold change (16/9) [24]: -1.003 | Log2-fold change (16/9) [25]: -0.1923 | Log2-fold change (16/9) [26]: 0.6936 | Log2-fold change (16/9) [27]: -0.4231 | Log2-fold change (16/9) [28]: 0.1876 | Log2-fold change (16/9) [29]: -1.716 | Log2-fold change (16/9) [30]: -0.4376 | Log2-fold change (16/9) [31]: -1.208
